# Source: US11554174B2, “Methods for improved protection and delivery of aminothiols and analogs thereof” (THE BURLINGTON HC RESEARCH GROUP, INC., priority 2015, dated 2023)
# Where two headings read alike, the source gives them in different places.
# Experiments:
# [1] = test system: C3H/10T1/2 cells; settings: 1 milliM; before, during and after radiation exposure; cited from earlier work
# [2] = mouse, in vivo; cited from earlier work
# [3] = some in vitro studies; cited from earlier work
# [4] = mice, aminothiol delivered as the phosphorothioate, cited from earlier work
# [5] = test system: radiation-induced tumors; settings: WR2721 plus radiation; cited from earlier work
# [6] = test system: radiation-induced tumors; settings: 400 mg/kg, 206 cGy gamma rays; cited from earlier work
# [7] = test system: HPRT gene in mouse splenocytes; settings: cited from earlier work
# [8] = test system: angiostatin; settings: cited from earlier work
# [9] = test system: Sa-NH sarcoma cells; settings: 50 mg/kg every other day for 6 days; 12 days without; cited from earlier work
# [10] = test system: Sa-NH tumors; settings: cited from earlier work
# [11] = test system: advanced malignant melanoma; settings: cited from earlier work
# [12] = test system: normal cells (liver, kidney, small intestine); settings: cited from earlier work
# [13] = children; cited from earlier work
# [14] = test system: prostate cancer cells; settings: literature reports; cited from earlier work
# [15] = test system: TK6 human lymphoblastoid cells; format: cell-based; settings: 1 milliM cyclophosphamide alone, 72 hours
compound,measurement,setting,value
CNCCCNCCCS [WR151326],protection factor against neoplastic transformation,[1],1.8
"NCCCNCCS [WR-1065, 2-(3-aminopropylamino)-ethanethiol]",protection factor against neoplastic transformation,[1],3.23
same,100% effective radioprotective dose,[2],about one half of the MTD
same,lowest efficacious concentration,[3],≥ 0.4 µM
same,maximally tolerated dose (MTD),[4]; i.p.,432 mg/kg BW
same,maximally tolerated dose (MTD),[4]; p.o.,720 mg/kg BW
"NCCCNCCSP(=O)(O)O [amifostine, S-2-(3-aminopropylamino)-ethylphosphorothioic Acid]",mice developing tumors,[5],26%
same,extension of total life expectancy,[6],65 days
same,reduction of cyclophosphamide-induced HPRT mutations,[7],8 fold
same,change of angiostatin levels,[8]; 200 mg/ml (instead of 50 mg/ml),did not change angiostatin levels
same,increase of serum angiostatin levels,"[8]; mouse, in vivo",4 fold
same,time for tumors to reach ideal size for amputation,[9],13 days
same,effect on pulmonary metastases,[10]; 50 mg/kg,reduced significantly
same,effect on pulmonary metastases,[10]; 100 mg/kg,less effective
same,effect on metastases,[10]; 200 mg/kg,no effect
same,minor responses,"[11]; combination of WR2721 and cisplatin, 3 out of 36 patients",8%
same,partial response,[11]; combination of WR2721 and cisplatin,53%
same,level with no observable cytotoxicity,[12]; kidney (in vivo),"> 17,000 picomol/10(6) cells"
same,level with no observable cytotoxicity,[12]; liver (in vivo),> 7400 picomol/10(6) cells
same,level with no observable cytotoxicity,[12]; small intestine (in vivo),> 3000 picomol/10(6) cells
same,single doses with no untoward effects,[13],up to 2700 mg/m2
same,effect upon prostate cancer cells,[14],radioprotective effect
N.N.[Cl][Pt][Cl] [cisplatin],partial response,[11]; cisplatin alone,10%
O=P1(N(CCCl)CCCl)NCCCO1 (stereo not drawn) [cyclophosphamide],cell death,[15],70%
